Laboratory results: ChEMBL document CHEMBL4842385, “Indirubin Derivatives as Dual Inhibitors Targeting Cyclin-Dependent Kinase and Histone Deacetylase for Treating Cancer” (J Med Chem, 2021)
The source made the active and inactive calls. No cut-off for these calls is given here.

Legend:
[1] = biological target: CDK6/cyclin D3 (Homo sapiens) (UniProt P30281+Q00534); details: dose 100.0 nM, time 10.0 min
[2] = biological target: CDK4/Cyclin D3 (Homo sapiens) (UniProt P11802+P30281); details: dose 100.0 nM, time 10.0 min
[3] = biological target: T1, Protein deacetylase HDAC6 (Homo sapiens, UniProt Q9UBN7); test: Inhibition of recombiant human HDAC6 using fluorogenic HDAC substrate 3 measured after 30 mins by fluorescence microplate reader assay
T1 sequence (Q9UBN7 whole entry): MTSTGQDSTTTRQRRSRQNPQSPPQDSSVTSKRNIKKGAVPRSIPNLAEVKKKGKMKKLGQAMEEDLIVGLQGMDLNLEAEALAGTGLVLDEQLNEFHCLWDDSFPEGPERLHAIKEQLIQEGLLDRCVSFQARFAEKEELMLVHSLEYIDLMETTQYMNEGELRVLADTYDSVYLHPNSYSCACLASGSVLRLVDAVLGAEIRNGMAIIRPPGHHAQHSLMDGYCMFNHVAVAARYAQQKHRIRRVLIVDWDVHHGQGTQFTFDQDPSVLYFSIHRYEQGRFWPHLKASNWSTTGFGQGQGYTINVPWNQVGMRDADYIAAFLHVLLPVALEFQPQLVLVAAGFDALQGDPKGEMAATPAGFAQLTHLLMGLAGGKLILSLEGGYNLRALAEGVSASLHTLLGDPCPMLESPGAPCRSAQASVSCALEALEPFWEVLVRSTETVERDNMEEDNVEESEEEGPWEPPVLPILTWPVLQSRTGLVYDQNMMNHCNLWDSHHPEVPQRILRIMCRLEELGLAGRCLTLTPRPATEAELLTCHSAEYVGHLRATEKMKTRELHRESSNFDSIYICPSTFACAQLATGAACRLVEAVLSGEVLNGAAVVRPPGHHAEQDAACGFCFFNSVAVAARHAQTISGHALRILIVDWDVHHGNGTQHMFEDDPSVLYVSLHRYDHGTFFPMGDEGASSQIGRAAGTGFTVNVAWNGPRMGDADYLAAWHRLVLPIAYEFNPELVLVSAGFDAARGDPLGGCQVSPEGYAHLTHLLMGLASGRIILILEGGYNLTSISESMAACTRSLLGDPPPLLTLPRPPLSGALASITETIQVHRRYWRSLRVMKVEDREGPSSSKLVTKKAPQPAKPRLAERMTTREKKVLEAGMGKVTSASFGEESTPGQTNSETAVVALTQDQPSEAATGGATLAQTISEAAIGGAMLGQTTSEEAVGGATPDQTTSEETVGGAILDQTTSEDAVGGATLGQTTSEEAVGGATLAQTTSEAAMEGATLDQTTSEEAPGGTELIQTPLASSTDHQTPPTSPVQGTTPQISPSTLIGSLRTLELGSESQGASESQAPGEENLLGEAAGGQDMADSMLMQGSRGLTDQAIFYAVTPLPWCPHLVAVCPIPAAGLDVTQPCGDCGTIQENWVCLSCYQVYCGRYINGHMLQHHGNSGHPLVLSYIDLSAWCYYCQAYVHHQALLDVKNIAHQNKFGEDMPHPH

[4] = biological target: CDK4/Cyclin D3 (Homo sapiens, UniProt P11802); test: Inhibition of full length human CDK4 (1 to 303 residues)/N-terminal GST-fusion tagged CyclinD3 (1 to 292 residues) expressed in baculovirus expression system preincubated for 10 mins followed by substrate and ATP addition by mobility shift assay
CDK4/Cyclin D3, sequence (P11802 whole entry, the tested form may be a part): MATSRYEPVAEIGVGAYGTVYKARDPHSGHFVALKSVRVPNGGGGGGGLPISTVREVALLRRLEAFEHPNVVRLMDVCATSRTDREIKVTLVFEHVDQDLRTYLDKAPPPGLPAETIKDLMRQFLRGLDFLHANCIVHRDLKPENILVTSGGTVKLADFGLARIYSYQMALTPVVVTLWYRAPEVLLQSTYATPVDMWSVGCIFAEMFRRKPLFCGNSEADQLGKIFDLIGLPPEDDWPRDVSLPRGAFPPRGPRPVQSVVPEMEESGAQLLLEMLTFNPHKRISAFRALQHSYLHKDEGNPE
CDK4/Cyclin D3, sequence (P30281 whole entry, further chain, the tested form may be a part): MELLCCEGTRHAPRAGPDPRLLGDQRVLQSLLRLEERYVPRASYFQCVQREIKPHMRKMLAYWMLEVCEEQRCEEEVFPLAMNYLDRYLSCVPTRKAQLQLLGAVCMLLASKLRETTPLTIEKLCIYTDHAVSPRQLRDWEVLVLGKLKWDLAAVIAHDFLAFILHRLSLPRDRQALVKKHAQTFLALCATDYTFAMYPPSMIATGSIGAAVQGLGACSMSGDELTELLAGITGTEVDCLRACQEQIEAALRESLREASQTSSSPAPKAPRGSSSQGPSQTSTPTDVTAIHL

[5] = biological target: T2, Histone deacetylase 8 (Homo sapiens, UniProt Q9BY41); test: Inhibition of HDAC8 (unknown origin) measured after 30 mins by fluorescence microplate reader assay
T2 sequence (Q9BY41 whole entry): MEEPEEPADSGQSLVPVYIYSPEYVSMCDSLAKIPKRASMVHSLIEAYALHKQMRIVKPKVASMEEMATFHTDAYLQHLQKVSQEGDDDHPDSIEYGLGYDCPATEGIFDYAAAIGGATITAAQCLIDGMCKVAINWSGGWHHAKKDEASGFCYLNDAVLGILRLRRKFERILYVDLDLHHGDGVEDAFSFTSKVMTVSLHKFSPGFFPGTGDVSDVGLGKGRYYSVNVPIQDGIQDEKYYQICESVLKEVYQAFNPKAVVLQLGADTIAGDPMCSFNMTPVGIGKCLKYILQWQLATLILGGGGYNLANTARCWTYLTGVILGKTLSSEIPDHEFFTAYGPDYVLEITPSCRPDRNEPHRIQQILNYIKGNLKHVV

[6] = biological target: Histone deacetylase 4 (Homo sapiens, UniProt P56524); test: Inhibition of HDAC4 (unknown origin) measured after 30 mins by fluorescence microplate reader assay
Histone deacetylase 4, sequence (P56524 whole entry): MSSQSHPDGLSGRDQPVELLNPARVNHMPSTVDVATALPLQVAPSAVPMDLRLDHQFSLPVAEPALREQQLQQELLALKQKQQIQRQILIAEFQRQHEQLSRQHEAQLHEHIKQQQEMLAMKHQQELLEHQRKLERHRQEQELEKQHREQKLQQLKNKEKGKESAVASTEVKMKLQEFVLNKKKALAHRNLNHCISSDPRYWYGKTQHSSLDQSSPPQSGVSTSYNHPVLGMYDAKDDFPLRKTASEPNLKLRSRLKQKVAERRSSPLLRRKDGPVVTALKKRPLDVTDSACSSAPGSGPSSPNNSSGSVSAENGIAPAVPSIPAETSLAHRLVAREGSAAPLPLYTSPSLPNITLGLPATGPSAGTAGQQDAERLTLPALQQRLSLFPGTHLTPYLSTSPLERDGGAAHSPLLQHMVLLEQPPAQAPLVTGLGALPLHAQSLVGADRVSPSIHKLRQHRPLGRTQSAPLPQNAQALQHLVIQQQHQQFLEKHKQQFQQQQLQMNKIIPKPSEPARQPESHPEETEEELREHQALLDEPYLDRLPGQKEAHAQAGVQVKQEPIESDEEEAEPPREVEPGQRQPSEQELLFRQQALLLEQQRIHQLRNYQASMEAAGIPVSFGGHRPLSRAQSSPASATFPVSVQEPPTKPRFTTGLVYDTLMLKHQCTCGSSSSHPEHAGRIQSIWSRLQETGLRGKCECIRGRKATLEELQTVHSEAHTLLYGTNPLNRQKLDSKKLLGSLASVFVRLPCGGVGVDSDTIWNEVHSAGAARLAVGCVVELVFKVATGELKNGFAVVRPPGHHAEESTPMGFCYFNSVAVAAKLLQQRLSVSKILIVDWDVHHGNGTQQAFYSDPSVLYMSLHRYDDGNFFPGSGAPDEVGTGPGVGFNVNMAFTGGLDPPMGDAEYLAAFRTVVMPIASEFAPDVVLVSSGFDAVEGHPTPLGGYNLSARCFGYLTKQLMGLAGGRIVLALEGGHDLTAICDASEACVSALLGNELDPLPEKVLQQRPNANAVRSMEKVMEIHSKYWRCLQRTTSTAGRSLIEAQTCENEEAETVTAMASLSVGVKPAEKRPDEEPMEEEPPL

[7] = biological target: NAD-dependent protein deacylase sirtuin-5, mitochondrial (Homo sapiens, UniProt Q9NXA8); test: Inhibition of recombinant human SIRT5 measured after 30 mins by fluorescence microplate reader assay
NAD-dependent protein deacylase sirtuin-5, mitochondrial, sequence (Q9NXA8 whole entry): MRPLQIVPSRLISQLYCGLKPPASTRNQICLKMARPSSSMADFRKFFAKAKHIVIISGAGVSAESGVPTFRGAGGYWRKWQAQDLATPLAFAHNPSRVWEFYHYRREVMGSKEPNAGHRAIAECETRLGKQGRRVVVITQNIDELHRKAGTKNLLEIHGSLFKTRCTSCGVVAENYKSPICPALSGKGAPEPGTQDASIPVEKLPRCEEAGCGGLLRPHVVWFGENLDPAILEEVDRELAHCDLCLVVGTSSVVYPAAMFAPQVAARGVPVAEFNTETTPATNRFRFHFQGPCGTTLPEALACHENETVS

[8] = biological target: Histone deacetylase 5 (Homo sapiens, UniProt Q9UQL6); test: Inhibition of HDAC5 (unknown origin) measured after 30 mins by fluorescence microplate reader assay
Histone deacetylase 5, sequence (Q9UQL6 whole entry): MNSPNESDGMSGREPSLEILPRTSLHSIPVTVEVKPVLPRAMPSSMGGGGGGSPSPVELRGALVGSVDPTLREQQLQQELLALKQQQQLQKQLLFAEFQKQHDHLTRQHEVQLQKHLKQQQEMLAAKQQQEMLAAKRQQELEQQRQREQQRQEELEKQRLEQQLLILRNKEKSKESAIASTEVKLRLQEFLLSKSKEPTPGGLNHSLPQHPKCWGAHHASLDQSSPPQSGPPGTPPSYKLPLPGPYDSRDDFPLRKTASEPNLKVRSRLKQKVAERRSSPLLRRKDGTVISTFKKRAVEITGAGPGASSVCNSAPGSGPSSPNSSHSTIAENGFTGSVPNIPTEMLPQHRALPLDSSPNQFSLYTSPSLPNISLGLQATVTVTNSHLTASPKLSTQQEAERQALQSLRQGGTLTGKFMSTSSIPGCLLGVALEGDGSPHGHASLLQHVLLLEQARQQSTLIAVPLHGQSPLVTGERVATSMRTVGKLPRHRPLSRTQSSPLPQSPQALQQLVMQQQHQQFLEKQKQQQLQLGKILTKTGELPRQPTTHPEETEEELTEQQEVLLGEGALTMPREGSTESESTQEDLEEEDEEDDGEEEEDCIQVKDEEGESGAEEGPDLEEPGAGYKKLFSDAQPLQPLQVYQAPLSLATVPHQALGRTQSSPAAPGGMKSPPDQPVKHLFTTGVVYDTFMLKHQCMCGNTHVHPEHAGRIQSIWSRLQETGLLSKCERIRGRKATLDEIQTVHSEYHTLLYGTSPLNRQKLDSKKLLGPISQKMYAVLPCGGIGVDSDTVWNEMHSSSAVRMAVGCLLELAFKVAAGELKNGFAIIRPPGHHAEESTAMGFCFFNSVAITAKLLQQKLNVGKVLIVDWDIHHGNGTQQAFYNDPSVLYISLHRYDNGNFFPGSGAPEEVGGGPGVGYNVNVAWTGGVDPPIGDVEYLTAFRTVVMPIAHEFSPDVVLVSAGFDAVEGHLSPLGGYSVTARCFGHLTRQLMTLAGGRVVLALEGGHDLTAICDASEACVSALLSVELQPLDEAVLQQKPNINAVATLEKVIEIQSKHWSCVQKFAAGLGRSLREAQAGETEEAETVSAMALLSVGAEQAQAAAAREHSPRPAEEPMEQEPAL

[9] = tested on: A549; test: Antiproliferative activity against human A549 cells assessed as cell growth inhibition measured after 48 hrs by CCK8 assay; type: functional, cell-based; details: A549, 48 h
[10] = biological target: NAD-dependent protein deacetylase sirtuin-2 (Homo sapiens, UniProt Q8IXJ6); test: Inhibition of recombinant human SIRT2 measured after 30 mins by fluorescence microplate reader assay
NAD-dependent protein deacetylase sirtuin-2, sequence (Q8IXJ6 whole entry): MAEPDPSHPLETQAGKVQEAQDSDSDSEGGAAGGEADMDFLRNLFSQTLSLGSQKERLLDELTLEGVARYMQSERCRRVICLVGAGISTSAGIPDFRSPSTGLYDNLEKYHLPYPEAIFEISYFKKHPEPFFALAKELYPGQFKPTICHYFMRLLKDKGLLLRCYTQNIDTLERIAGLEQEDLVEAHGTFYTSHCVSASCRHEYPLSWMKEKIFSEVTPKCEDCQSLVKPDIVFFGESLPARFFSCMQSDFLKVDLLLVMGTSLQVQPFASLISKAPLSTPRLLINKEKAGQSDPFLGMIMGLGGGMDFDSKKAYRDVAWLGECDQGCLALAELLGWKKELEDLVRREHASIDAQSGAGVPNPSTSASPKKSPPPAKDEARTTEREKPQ

[11] = Toxicity in iv dosed BALB/c nude mouse assessed as maximum tolerated dose administered once daily for 5 consecutive days; type: organism-based; details: in vivo, time 5 day
[12] = biological target: T3, Protein deacetylase HDAC6 (Homo sapiens) (UniProt Q9UBN7); test: Inhibition of HDAC6 in human A549 cells assessed as increase in alpha tubulin acetylation at 10 uM incubated for 24 hrs followed by compound washout by DAPI staining based immunofluorescence assay; type: cell-based
T3 sequence (whole entry): T1 sequence (Q9UBN7 whole entry)

[13] = biological target: T3, Protein deacetylase HDAC6 (Homo sapiens); test: Inhibition of HDAC6 in human K562 cells assessed as accumulation of acetylation of H3 at 1 to 10 uM measured after 48 hrs by Western blot analysis; type: cell-based; details: dose 1-10 µM
[14] = tested on: HeLa; test: Antiproliferative activity against human HeLa cells assessed as cell growth inhibition measured after 48 hrs by CCK8 assay; type: functional, cell-based
[15] = tested on: MCF7; test: Induction of apoptosis in human MCF7 cells assessed as increase in sum of early and late apoptotic cells at 2.5 to 10 uM measured after 48 hrs by Annexin-V/FITC-propidium iodide staining based flow cytometry analysis; type: functional, cell-based; details: dose 2.5-10 µM
[16] = biological target: Histone deacetylase 9 (Homo sapiens, UniProt Q9UKV0); test: Inhibition of recombinant human HDAC9 measured after 30 mins by fluorescence microplate reader assay
Histone deacetylase 9, sequence (Q9UKV0 whole entry): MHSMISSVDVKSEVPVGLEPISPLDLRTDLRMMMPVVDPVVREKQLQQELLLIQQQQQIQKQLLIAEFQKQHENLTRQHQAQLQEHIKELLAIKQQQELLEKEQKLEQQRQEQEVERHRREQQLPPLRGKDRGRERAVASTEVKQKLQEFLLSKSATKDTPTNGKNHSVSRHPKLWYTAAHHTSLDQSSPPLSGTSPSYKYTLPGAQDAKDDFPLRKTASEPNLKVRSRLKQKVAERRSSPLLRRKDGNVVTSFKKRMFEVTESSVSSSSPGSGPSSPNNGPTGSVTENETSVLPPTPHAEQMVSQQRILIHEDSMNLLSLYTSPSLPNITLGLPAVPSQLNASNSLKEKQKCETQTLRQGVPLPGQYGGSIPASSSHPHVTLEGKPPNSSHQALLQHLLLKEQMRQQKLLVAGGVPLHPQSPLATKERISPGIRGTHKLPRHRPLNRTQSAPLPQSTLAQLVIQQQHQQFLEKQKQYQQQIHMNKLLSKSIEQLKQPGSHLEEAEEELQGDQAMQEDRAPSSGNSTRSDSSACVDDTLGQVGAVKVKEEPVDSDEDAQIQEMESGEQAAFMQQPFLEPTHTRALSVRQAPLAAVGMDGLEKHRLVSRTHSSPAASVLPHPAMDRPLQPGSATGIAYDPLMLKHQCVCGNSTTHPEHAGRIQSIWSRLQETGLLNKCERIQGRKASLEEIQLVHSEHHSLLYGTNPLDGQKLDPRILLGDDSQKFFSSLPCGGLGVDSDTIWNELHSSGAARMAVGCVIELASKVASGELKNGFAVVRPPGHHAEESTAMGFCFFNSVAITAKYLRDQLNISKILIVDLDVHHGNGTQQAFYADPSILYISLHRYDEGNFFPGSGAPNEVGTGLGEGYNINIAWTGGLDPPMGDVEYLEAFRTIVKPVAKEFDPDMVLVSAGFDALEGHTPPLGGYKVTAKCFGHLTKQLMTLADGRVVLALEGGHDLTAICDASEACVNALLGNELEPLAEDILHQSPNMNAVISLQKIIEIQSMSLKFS

[17] = tested on: K562; test: Antiproliferative activity against human K562 cells assessed as cell growth inhibition measured after 48 hrs by CCK8 assay; type: functional, cell-based; details: K562, 48 h
[18] = tested on: A549; test: Antitumor activity against human A549 cells xenografted in BALB/c nude mouse assessed as reduction in tumor volume at 0.75 to 1.5 mg, IT (intratumoral) administered for 21 consecutive days; type: functional, cell-based; details: dose 0.75-1.5 mg, time 21.0 day
[19] = tested on: HepG2; test: Antiproliferative activity against human HepG2 cells assessed as cell growth inhibition measured after 48 hrs by CCK8 assay; type: functional, cell-based; details: HepG2, 48 h

inhibition [1] | IC50 [3] | IC50 [5] | IC50 [6] | Compound | inhibition [2] | IC50 [4] | IC50 [7] | IC50 [8] | IC50 [9] | IC50 [10] | MTD at 120 h [11] | inhibition [12] | inhibition [13] | IC50 [14] | Activity [15] | IC50 [16] | IC50 [17] | Activity [18] | IC50 [19]
0.8% | 1.87 µM | > 5 µM | > 100 µM | C#CCN1C(=O)/C(=C2\Nc3ccccc3\C2=N/OCCCC(=O)NO)c2ccccc21 | 3.9% | > 1 µM | – | – | – | – | – | – | – | – | – | – | – | – | –
41.3% | > 5 µM | > 5 µM | > 5 µM | O=C(O)CCCO/N=C1/C(=C2/C(=O)Nc3ccccc32)Nc2ccccc21 | – | – | > 100 µM | > 5 µM | > 10 µM | > 100 µM | – | – | – | > 10 µM | – | > 5 µM | > 10 µM | – | > 10 µM

Compound | inhibition [1] | IC50 [3] | IC50 [5] | IC50 [6] | inhibition [2] | IC50 [4] | IC50 [7] | IC50 [8] | IC50 [9] | IC50 [10] | MTD at 120 h [11] | inhibition [12] | inhibition [13] | IC50 [14] | Activity [15] | IC50 [16] | IC50 [17] | Activity [18] | IC50 [19]
O=C(CCCO/N=C1/C(=C2/C(=O)Nc3ccccc32)Nc2ccccc21)NO | 76.6% | 0.129 µM | > 5 µM | > 5 µM | 30.2% | 0.276 µM | > 100 µM | > 5 µM | 2 µM | > 100 µM | ≤ 200 mg/kg | Active | inactive | 0.8 µM | Active | > 5 µM | 2.5 µM | Active | 5.7 µM
